Among the data in doi:10.1101/2020.02.26.964882v3 (biorxiv, 2020) are IC50 values, retold here.

This test addresses COVID-19 virus M^pro (Severe acute respiratory syndrome coronavirus 2, UniProt P0DTD1). Briefly: enzymatic inhibition assay. It counts as biochemical.

Molecule `CN(C)CCCSc1ccccc1NC(=O)/C=C/c1ccccc1` [cinanserin] had an IC50 of 125 µM.
